Among the test systems are Acinetobacter baumannii; Aeromonas hydrophila; Aeromonas sobria; Aeromonas veronii; Aspicilia cinerea; Bacillus cereus; Bacillus subtilis; Candida albicans; Candida glabrata 1; Candida glabrata; Enterococcus faecalis; Enterococcus faecium; Escherichia coli 1; Escherichia coli; Klebsiella oxytoca; Klebsiella pneumoniae; Nocardia asteroides; Proteus mirabilis; Proteus vulgaris; Pseudomonas aeruginosa; Shigella dysenteriae; Staphylococcus aureus 1; Staphylococcus aureus 4; Staphylococcus aureus; Vibrio anguillarum; Vibrio cholerae; Vibrio harveyi; Vibrio parahaemolyticus.

What all share (experiment): ≥ marks a high value that may be exact or a test limit, other limits are often not marked, values filed in µg/mL are converted to µM
In assay [1] the test system is Escherichia coli ATCC 25922.
In assay [2] the test system is Pseudomonas aeruginosa ATCC 27853.
Assay [3] relates to Salmonella enterica subsp. enterica serovar Paratyphi A.
The test system of assay [4] is Staphylococcus aureus ATCC 25923.
For assay [5], the system named is Staphylococcus epidermidis.
In assay [6] the test system is Stenotrophomonas maltophilia 2.
Assay [7] concerns Stenotrophomonas maltophilia.
Assay [8] has as its system Escherichia coli CCARM 1238.
For assay [9], the system named is Listeria monocytogenes KCTC 3710.
The test system of assay [10] is Pseudomonas aeruginosa 3592.
Assay [11] concerns Salmonella typhimurium CCARM 8009.
In assay [12] the test system is Salmonella typhimurium CCARM 8013.
Assay [13] concerns Salmonella typhimurium KCTC 1926.
Assay [14] has as its system Staphylococcus aureus CCARM 3114.
Assay [15] has as its system Escherichia coli NBRC 3972.
Assay [16] concerns Pseudomonas aeruginosa NBRC 13275.
In assay [17] the test system is Staphylococcus aureus NBRC 13276.

Values after ≈ are worked out from the molar mass of the structure shown. Values joined by “and” are separate entries in the source; they are usually repeats but may differ in a detail not shown here. Equal values may be shown once. Where only a bound is given, the exact number is not on record here.

In the case of `CC[C@H](C)[C@H](NC(=O)CNC(=O)[C@H](Cc1c[nH]c2ccccc12)NC(=O)CNC(=O)[C@H](C)NC(=O)[C@H](C)NC(=O)[C@H](CCCCN)NC(=O)[C@H](CC(C)C)NC(=O)CNC(=O)CNC(=O)[C@H](CCCN=C(N)N)NC(=O)[C@H](CC(C)C)NC(=O)[C@H](CC(C)C)NC(=O)[C@H](Cc1c[nH]c2ccccc12)NC(=O)[C@H](CC(C)C)NC(=O)[C@H](Cc1c[nH]c2ccccc12)NC(=O)[C@H](CCCN=C(N)N)NC(=O)[C@@H](N)[C@@H](C)O)C(=O)N[C@@H](CCCN=C(N)N)C(=O)N[C@@H](C)C(=O)N[C@@H](Cc1cnc[nH]1)C(=O)N[C@@H](CC(C)C)C(=O)N[C@@H](CC(N)=O)C(=O)N[C@@H](CCCN=C(N)N)C(=O)N[C@@H](CC(N)=O)C(=O)N[C@@H](CCC(N)=O)C(=O)O` [TRWLWLLRGGLKAAGWGIRAHLNRNQ], the minimum inhibitory concentration (MIC) was ≥ 65.7 µM with Acinetobacter baumannii; 12.3 µM (≈ 37.5 µg/mL) against Aeromonas hydrophila; 12.3 µM (≈ 37.5 µg/mL) against Aeromonas sobria; 24.6 µM (≈ 75 µg/mL) with Aeromonas veronii; ≥ 65.7 µM against Aspicilia cinerea; ≥ 65.7 µM in the assay with Bacillus cereus. The MIC was 3.08 µM (≈ 9.38 µg/mL) with Bacillus subtilis; > 65.7 µM against Candida albicans; ≥ 65.7 µM against Candida glabrata 1; 12.3 µM (≈ 37.5 µg/mL) against Candida glabrata; ≥ 65.7 µM in the assay with Enterococcus faecalis; ≥ 65.7 µM against Enterococcus faecium. Further, the MIC against Escherichia coli 1 is 1.54 µM (≈ 4.69 µg/mL); in assay [1] it was 3.08 µM (≈ 9.38 µg/mL); against Escherichia coli it was 4.36 µM (≈ 13.3 µg/mL); in the assay with Klebsiella oxytoca, ≥ 65.7 µM; with Klebsiella pneumoniae it was 3.08 µM (≈ 9.38 µg/mL); with Nocardia asteroides, 6.16 µM (≈ 18.8 µg/mL). Besides, the MIC against Proteus mirabilis was 3.08 µM (≈ 9.38 µg/mL); against Proteus vulgaris, ≥ 65.7 µM; in assay [2] it was 12.3 µM (≈ 37.5 µg/mL); in the assay with Pseudomonas aeruginosa, 6.16 µM (≈ 18.8 µg/mL); in assay [3], 12.3 µM (≈ 37.5 µg/mL); in the assay with Shigella dysenteriae it was 12.3 µM (≈ 37.5 µg/mL). Besides, the MIC was ≥ 65.7 µM in the assay with Staphylococcus aureus 1; 3.08 µM (≈ 9.38 µg/mL) in the assay on Staphylococcus aureus 4; > 65.7 µM in assay [4]; 12.3 µM (≈ 37.5 µg/mL) against Staphylococcus aureus; ≥ 65.7 µM in assay [5]; 6.16 µM (≈ 18.8 µg/mL) in [6]. Further, the MIC in assay [7] is ≥ 65.7 µM; with Vibrio anguillarum, 6.16 µM (≈ 18.8 µg/mL); in the assay on Vibrio cholerae, 12.3 µM (≈ 37.5 µg/mL); with Vibrio harveyi, 12.3 µM (≈ 37.5 µg/mL); with Vibrio parahaemolyticus, 12.3 µM (≈ 37.5 µg/mL).
Take `CC[C@H](C)[C@H](NC(=O)[C@H](Cc1c[nH]c2ccccc12)NC(=O)[C@H](CCCCN)NC(=O)[C@@H](NC(=O)[C@@H](N)CCCCN)[C@@H](C)CC)C(=O)N[C@@H](CC(C)C)C(=O)N[C@@H](CCCCN)C(=O)N[C@@H](Cc1ccc(O)cc1)C(=O)N[C@@H](Cc1c[nH]c2ccccc12)C(=O)N[C@@H](CCCCN)C(=O)N[C@@H](Cc1c[nH]c2ccccc12)C(=O)N[C@@H](CO)C(=O)O` [KIKWILKYWKWS]: the MIC was 4 µM and 8 µM in [8]; 4 µM (≈ 6.72 µg/mL) in assay [9]; 8 µM and 16 µM in [10]; 4 µM and 8 µM in [2]; 8 µM (≈ 13.4 µg/mL) in assay [11]; 16 µM and ≥ 32 µM in assay [12]. Further, the MIC is 2 µM (≈ 3.36 µg/mL) in assay [13]; 0.25 µM (≈ 0.42 µg/mL) in assay [4]; 16 µM and ≥ 32 µM in assay [14].
Turning to `CC(=O)N[C@@H](CCCCN)C(=O)N[C@@H](CCCCN)C(=O)N[C@@H](C)C(=O)N[C@@H](CCCCN)C(=O)N[C@@H](CCCCN)C(=O)N[C@@H](C)C(=O)N[C@@H](CCCCN)C(=O)N[C@@H](CCCCN)C(=O)N[C@@H](C)C(N)=O` [KKAKKAKKA], the MIC in assay [15], in assay [16] and in assay [17] was ≥ 800 µM each time.

The values above are taken from DBAASP.
